Results: patent publication US6306422A, “Compositions and devices for controlled release of active ingredients” (priority 1998, dated 2001)
Counter-ions that a name gives are not always drawn.

Key:
bacteria = settings: cited from earlier work
[1] = Swelling in solvents for drug loading and AHA loading of the hydrogel; format: physicochemical
Method: Six pieces of the MMA/AA (90/9) polymer were weighed in the dry state. Each piece was placed into 4 ml of a separate solvent. The solvents used were pH buffers with pH values of 4.0, 7.4, and 9.0, 90 v/v % ethanol, methanol, and 90 v/v % acetone at 37° C. […] A 16 w/w % solution of acetohydroxamic acid in 90% acetone was prepared.
Hydrogel pieces were weighed in the dry state. Six pieces weighing approximately the same were separated out for each respective pH buffer value. Each gel piece was individually placed into a test tube containing 3 ml of the 16% AHA acetone solution. The test tubes were capped and wrapped in parafilm to prevent evaporation of the solvent. The test tubes were placed into a 37° C. water bath for 48 hours. The hydrogel pieces were then removed from the AHA solution and placed in a vacuum oven at 60° C. for solvent evaporation and then at room temperature for a total drying time of 72 hours. The drug-loaded gels were then reweighed, and the total AHA content was calculated.
Absorbances for each of the solutions were measured at 515 nm on a Perkin-Elmer Lambda 3B UV/VIS Spectrophotometer. A calibration curve was calculated from the standard concentration solutions. The concentrations of the AHA were calculated from the absorbances and raised to the initial surface area of the gel matrix.

[2] = cited from earlier work
urease = molecular target: T1, urease (Proteus mirabilis, UniProt P17086); experiment: Bacteria/urease study: pH of artificial urine with Proteus mirabilis; format: cell-based; settings: 10^11 bacteria/ml
T1 construct: endogenous in cells; host or cells: living Proteus mirabilis (clinic isolate) in artificial urine
Method: After mixing, the urine was filter-sterilized into a sterile container using a 0.2 μm pore size filtration system. A solution of this artificial urine containing 750 μg/ml of AHA was prepared by dissolving 0.0757 g of the AHA in 100 ml of the urine. This solution was then diluted in series to yield artificial urine with AHA concentrations of 375, 187.5, 75, and 7.5 μg/ml.
Fifty milliliters of these solutions were sterilized by filtering them through a syringe filter with 0.2 μm pore size into a sterile container.
Proteus mirabilis were harvested from the Surgery/Urology clinic at the University of Florida, Gainesville, Fla. These bacteria were cultured on a heart infusion agar (Difco Laboratories) for 48 hours at 37° C. Bacteria were aseptically harvested and suspended in a solution of artificial urine not containing any of the urease inhibitor. Dilutions of this suspension were made to 10,000, and a count of the bacteria was made on a microscopic counting grid. The initial concentration of bacteria was back-calculated by using the Petroff-Hauser formula shown in equation two. [formula]
For the urine solutions containing the urease inhibitor and two control solutions (one containing bacteria and the other without), a series of six test tubes was set up. […] The pH of each of the samples was measured initially and then at 2 hour intervals up to 12 hours. […]

[3] = cited from earlier work; remark: listed apart in the source
struvite encrustation = settings: cited from earlier work
[4] = cited from earlier work; remark: listed apart in the source
[5] = system: Proteus sp. and other urease-producing organisms; settings: cited from earlier work
[6] = in vivo; cited from earlier work

T1 sequence (P17086 whole entry): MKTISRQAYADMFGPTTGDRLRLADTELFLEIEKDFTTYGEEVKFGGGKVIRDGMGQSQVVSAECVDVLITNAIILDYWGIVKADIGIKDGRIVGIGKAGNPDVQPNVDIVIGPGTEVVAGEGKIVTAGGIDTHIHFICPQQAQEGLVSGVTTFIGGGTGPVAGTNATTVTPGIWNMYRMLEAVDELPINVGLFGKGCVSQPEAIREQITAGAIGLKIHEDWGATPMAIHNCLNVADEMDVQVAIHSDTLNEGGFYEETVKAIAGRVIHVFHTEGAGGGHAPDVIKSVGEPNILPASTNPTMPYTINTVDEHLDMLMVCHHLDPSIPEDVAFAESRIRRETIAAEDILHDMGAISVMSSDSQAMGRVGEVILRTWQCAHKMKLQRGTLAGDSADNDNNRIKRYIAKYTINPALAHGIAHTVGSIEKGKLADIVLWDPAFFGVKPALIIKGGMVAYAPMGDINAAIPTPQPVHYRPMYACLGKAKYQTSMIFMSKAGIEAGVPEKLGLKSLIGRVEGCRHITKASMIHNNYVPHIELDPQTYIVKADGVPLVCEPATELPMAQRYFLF
T1 sequence (P17088 whole entry, further chain): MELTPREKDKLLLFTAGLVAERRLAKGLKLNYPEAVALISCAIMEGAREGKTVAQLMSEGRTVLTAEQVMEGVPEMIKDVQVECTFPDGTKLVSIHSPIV
T1 sequence (P17087 whole entry, further chain): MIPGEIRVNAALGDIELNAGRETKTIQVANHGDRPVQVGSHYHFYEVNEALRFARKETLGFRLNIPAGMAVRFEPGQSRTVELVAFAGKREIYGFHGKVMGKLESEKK

## CC(=O)NO [AHA, acetohydroxamic acid]
bacteria
  effect of the presence of AHA on methenamine: increases the antibacterial activity of the methenamine
[1]; in 90% acetone
  concentration near the saturation point: ~16 w/w %
[1]; pH 4.0, 7.4, 9.0 buffers, 90 v/v % ethanol, methanol, 90 v/v % acetone
  solubility of AHA in the chosen solutions: very soluble
[2]
  pKa: 9.3
urease; AHA 7.5-750 μg/ml, 37° C., up to 24 hours
  effect of AHA on the activity of urease (pH of artificial urine): resists pH increase for a longer time and experiences a smaller overall pH increase
urease; artificial urine
  concentration of AHA giving therapeutic benefit: 7.5 µg/mL
[3]; human, in vivo
  absorption from the gastrointestinal tract: well absorbed
[3]; patients
  adverse effects limiting use: Coomb's hemolytic anemia, GI complaints, bone marrow depression, and teratogenicity

## O=C(O)CC(O)(CC(=O)O)C(=O)O [Sodium citrate]
Struvite encrustation
  prevention of struvite encrustation: shows potential

## [H]/N=C(\N/C(=N/[H])NCCCCCCNC(=N)NC(=N)Nc1ccc(Cl)cc1)Nc1ccc(Cl)cc1 [chlorhexidine]
[4]
  solubility in alcohols: highly soluble

## O=C(O)CNC(=O)c1ccccc1 [hippuric acid]
[4]
  solubility in alcohols: highly soluble

## Chondroitin sulfate
Struvite encrustation
  prevention of struvite encrustation: ineffective

## Gentamicin
[5]
  effectiveness against Proteus sp. and other urease-producing organisms: highly effective
[6]
  toxicity limiting plasma concentrations: systemic nephrotoxicity

## heparin sulfate
Struvite encrustation
  prevention of struvite encrustation: ineffective
